From patent US7098372B1, “Pharmaceutical compositions and methods of using secreted frizzled related protein” (Wyeth, priority 1999, dated 2006)

Legend:
hOB SFRP gene fragment = experiment: RADE (differential-display PCR) of hOB cell lines treated with osteogenic agents; format: cell-based, human; details: 24 hr
Text: It can also be seen that the hOB-01-C1 cells express high basal levels of this gene.
The hOB SFRP gene fragment was identified using RADE (rapid analysis of differential expression) technology as described by Shiue 1997 Drug Develop. Res. 41: 142–159, the whole of which is incorporated herein. Three hOB cell lines (hOB-03-C5, hOB-03-CE6 and hOB-01-C1), representing three distinct stages of differentiation (proliferative, mature and preosteocytic, respectively) were used to isolate and identify SFRP. The hOB cell lines were established and cultured as previously described (Bodine et al. 1996 J. Bone Miner. Res. 11: 806–819; Bodine et al. 1996 Endocrinology 137: 4592–4604; Bodine et al. 1997 J. Cell. Biochem. 65: 368–387). […] However, in contrast to osteosarcoma cells (Stein and Lian 1993 Endocrine Rev. 14: 424–442), the hOB cell lines were faithful to the proliferation/differentiation relationship at the nonpermissive temperature (>37° C.) when the T-antigen mutant is inactivated. The cell lines were seeded into 150 mm dishes at ˜40,000 cells/cm^2 with growth medium [D-MEM/F-12 containing 10% (v/v) heat-inactivated fetal bovine serum (FBS), 1% (v/v) Penicillin-Streptomycin and 2 mM GlutaMAX-1] and incubated overnight at 34° C. […]

[1] = tested on: hOB-03-C5, hOB-03-CE6 and hOB-01-C1 cells; experiment: hOB cell viability in serum-free medium, Coulter cell counter; format: cell-based, human; details: 39° C.
Experimental: For these experiments, the cells were treated with either control or PGE2 (panels A & B) or control and TGF-β1 (panel C) in serum-free medium at 39° C. for 3 or 6 days. The results are presented as the % relative to the day 0 control (i.e., […] cells per well of a 6 well plate). The results of this experiment indicate that hOB cell viability declines over time in serum-free medium. In addition, for the hOB-03-C5 and hOB-03-CE6 cells, this rate of decline is accelerated by treatment with PGE2. This enhanced rate of cell death correlates with the upregulation of hOB SFRP mRNA levels in these cells following PGE2 treatment. […]
The next day, one set of plates were rinsed with PBS, trypsinized, and baseline cell number (and mean cell volume) was determined with a Coulter Multisizer as previously described in Bodine et al. 1996 J. Bone Miner. […] The other set of plates was placed at the non-permissive temperature of 39° C., and cell number was determined 6 days later (the medium was changed on day 3). […]
The hypothesis that up-regulation of SFRP-1/FRP-1/SARP-2 gene expression accelerates hOB cell death, while down-regulation of SFRP-1/FRP-1/SARP-2 gene expression suppresses cell death, was next examined. […] Finally, treatment of the hOB-03-C5 cells with PGE2 increased annexin V (a specific marker for apoptosis) binding to the cell as measured by flow cytometry (FIG. 11).

Row | Molecule | regulation of hOB SFRP gene fragment (hOB SFRP gene fragment; pre-osteocytic hOB-01-C1 cell line, 0.1 nM) | increase in cell viability ([1]; hOB-01-C1 cells, 0.01–1.0 nM, dose-dependent) | regulation of hOB SFRP gene fragment (hOB SFRP gene fragment; hOB-03-C5 and hOB-03-CE6 cell lines, 100 nM) | fewer cells remaining alive versus control ([1]; hOB-03-C5 and hOB-03-CE6 cells, 100 nM, 6 days)
1 | human transforming growth factor-β1 [TGF-β1] | down-regulated | about 2 fold |  | 
2 | CCCCC[C@H](O)/C=C/[C@H]1[C@H](O)CC(=O)[C@@H]1C/C=C\CCCC(=O)O [PGE2, prostaglandin E2] |  |  | strongly up-regulated | over 40%
